Measurements taken from ChEMBL document CHEMBL5523702, “Synthesis and structure-activity optimization of azepane-containing derivatives as PTPN2/PTPN1 inhibitors” (Eur J Med Chem, 2024).
In brackets after ≈: the same amount, converted by molar mass.

Assays:
[1] = molecular target: T1, Tyrosine-protein phosphatase non-receptor type 2 (Homo sapiens, UniProt P17706); test: Inhibition of human PTPN2 using DiFMUP as substrate by fluorescence based phosphatase assay
T1 sequence (P17706 whole entry): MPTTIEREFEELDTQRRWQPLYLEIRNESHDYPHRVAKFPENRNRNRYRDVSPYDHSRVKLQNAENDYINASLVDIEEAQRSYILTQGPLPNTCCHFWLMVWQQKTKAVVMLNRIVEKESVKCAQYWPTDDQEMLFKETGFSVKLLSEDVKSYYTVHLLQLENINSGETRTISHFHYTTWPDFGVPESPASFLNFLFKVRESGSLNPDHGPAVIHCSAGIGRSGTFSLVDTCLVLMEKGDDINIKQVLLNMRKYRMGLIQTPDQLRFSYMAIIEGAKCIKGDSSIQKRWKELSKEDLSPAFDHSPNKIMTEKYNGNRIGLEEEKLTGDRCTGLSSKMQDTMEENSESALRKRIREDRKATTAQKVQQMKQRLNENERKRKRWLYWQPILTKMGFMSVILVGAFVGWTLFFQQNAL

[2] = Inhibition of PTPN2 in IFN-gamma induced mouse B16-F10 cells; type: cell-based
[3] = AUC (0 to t) in mouse at 10 mg/kg, po; type: ADME, organism-based; details: in vivo
[4] = Half life in mouse at 10 mg/kg, po; type: ADME, organism-based; details: in vivo
[5] = Cmax in mouse at 10 mg/kg, po; type: ADME, organism-based; details: in vivo
[6] = Solubility of compound in FaSSIF at pH 7.4
[7] = Kinetic solubility of the compound at pH 7.4; details: buffer
[8] = Half life in dog at 2 mg/kg, po; type: ADME, organism-based, Canis lupus familiaris; details: in vivo
[9] = Half life in mouse at 50 mg/kg, po; type: ADME, organism-based; details: in vivo
[10] = Efflux ratio of apparent permeability in human Caco-2 cells across basolateral to apical side over apical to basolateral side
[11] = AUC (0 to t) in dog at 2 mg/kg, po; type: ADME, organism-based, Canis lupus familiaris; details: in vivo
[12] = AUC (0 to t) in mouse at 1 mg/kg, iv; type: ADME, organism-based; details: in vivo
[13] = Oral bioavailability in mouse at 10 mg/kg; type: ADME, organism-based; details: in vivo
[14] = Clearance in dog assessed as liver blood flow at 1 mg/kg, iv; type: ADME, organism-based, Canis lupus familiaris; details: in vivo
[15] = Cmax in mouse at 1 mg/kg, iv; type: ADME, organism-based; details: in vivo
[16] = Oral bioavailability in mouse at 50 mg/kg; type: ADME, organism-based; details: in vivo
[17] = Cmax in rat at 10 mg/kg, po; type: ADME, organism-based; details: in vivo
[18] = Half life in mouse at 1 mg/kg, iv; type: ADME, organism-based; details: in vivo
[19] = Plasma protein binding in human assessed as unbound fraction; type: ADME, cell-free
[20] = molecular target: T2, Tyrosine-protein phosphatase non-receptor type 1 (Homo sapiens, UniProt P18031); test: Inhibition of human PTP1B
T2 sequence (P18031 whole entry): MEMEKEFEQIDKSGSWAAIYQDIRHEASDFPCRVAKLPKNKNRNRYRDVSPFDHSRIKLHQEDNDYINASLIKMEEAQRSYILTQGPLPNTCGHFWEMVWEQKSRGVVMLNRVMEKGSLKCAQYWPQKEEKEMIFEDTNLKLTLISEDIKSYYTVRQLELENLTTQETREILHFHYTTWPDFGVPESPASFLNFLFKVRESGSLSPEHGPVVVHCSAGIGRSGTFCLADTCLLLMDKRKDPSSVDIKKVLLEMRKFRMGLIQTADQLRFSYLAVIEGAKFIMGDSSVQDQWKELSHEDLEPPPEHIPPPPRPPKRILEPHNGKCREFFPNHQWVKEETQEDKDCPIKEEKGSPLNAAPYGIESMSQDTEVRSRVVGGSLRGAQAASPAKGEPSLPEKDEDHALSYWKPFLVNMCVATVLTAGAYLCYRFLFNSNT

[21] = Cmax in dog at 2 mg/kg, po; type: ADME, organism-based, Canis lupus familiaris; details: in vivo
[22] = Volume of distribution at steady state in rat at 1 mg/kg, iv; type: ADME, organism-based; details: in vivo, read-out: Vdss
[23] = Cmax in mouse at 50 mg/kg, po; type: ADME, organism-based; details: in vivo
[24] = Solubility of compound in FeSSIF at pH 7.4
[25] = Volume of distribution at steady state in mouse at 1 mg/kg, iv; type: ADME, organism-based; details: in vivo, read-out: Vdss
[26] = Apparent permeability of compound in human Caco-2 cells across apical to basolateral side
[27] = Clearance in rat assessed as liver blood flow at 1 mg/kg, iv; type: ADME, organism-based; details: in vivo
[28] = Apparent permeability of compound in human Caco-2 cells across basolateral to apical side
[29] = Plasma protein binding in rat assessed as unbound fraction; type: ADME, cell-free
[30] = Clearance in mouse assessed as liver blood flow at 1 mg/kg, iv; type: ADME, organism-based; details: in vivo
[31] = AUC (0 to t) in mouse at 50 mg/kg, po; type: ADME, organism-based; details: in vivo
[32] = Volume of distribution at steady state in dog at 1 mg/kg, iv; type: ADME, organism-based, Canis lupus familiaris; details: in vivo, read-out: Vdss
[33] = AUC (0 to t) in rat at 10 mg/kg, po; type: ADME, organism-based; details: in vivo
[34] = Plasma protein binding in mouse assessed as unbound fraction; type: ADME, cell-free
[35] = Oral bioavailability in rat at 10 mg/kg; type: ADME, organism-based; details: in vivo
[36] = Oral bioavailability in dog at 2 mg/kg; type: ADME, organism-based, Canis lupus familiaris; details: in vivo

`CCC1Cc2c(cc(O)c(N3CC(=O)NS3(=O)=O)c2F)CCN1` (racemic) gave an IC50 [1] of 0.00973 µM and an IC50 ([2]; Mus musculus, B16-F10) of 0.425 µM.

Molecule `CC1Cc2c(cc(O)c(N3CC(=O)NS3(=O)=O)c2F)CCN1` (racemic) has an AUC(0-t) [3] of 1360 ng·h/mL, a half-life [4] of 1.25 h and a Cmax [5] of 392 ng/mL.

With `CC1Cc2c(cc(O)c(N3CC(=O)NS3(=O)=O)c2F)CCN1CC1CC1` (racemic) the IC50 [1] was 0.0281 µM and the IC50 ([2]; Mus musculus, B16-F10) was 1.03 µM.

Molecule `CCC1Cc2c(cc(O)c(N3CC(=O)NS3(=O)=O)c2F)CCN1C` (racemic) has an IC50 [1] of 0.0755 µM and an IC50 ([2]; Mus musculus, B16-F10) of 17.7 µM.

Work on `CC1Cc2c(cc(O)c(N3CC(=O)NS3(=O)=O)c2F)CCN1C` (racemic) yielded an IC50 [1] of 0.0174 µM and an IC50 ([2]; Mus musculus, B16-F10) of 0.669 µM.

`CC1Cc2c(cc(O)c(N3CC(=O)NS3(=O)=O)c2F)CCN1` (stereo in doubt; 10a) gave an IC50 [1] of 0.005 µM and an IC50 ([2]; Mus musculus, B16-F10) of 0.276 µM.

`CC1Cc2c(cc(O)c(N3CC(=O)NS3(=O)=O)c2F)CCN1` (stereo in doubt; 10b) showed an IC50 [1] of 0.0174 µM and an IC50 ([2]; b16-f10) of 0.455 µM.

`CC(C)CCN[C@@H]1CCc2cc(O)c(N3CC(=O)NS3(=O)=O)c(F)c2C1` [OSUNPROTAFIB] gave a solubility [6] of 206 µM (≈ 79.4 µg/mL), a solubility kinetic [7] of 204 µM (≈ 78.6 µg/mL) and a half-life [8] of 3.41 h. The half-life [9] was 4.86 h, the efflux ratio [10] was 0.065 and the AUC(0-t) [11] was 319 ng·h/mL. The AUC(0-t) [12] was 851 ng·h/mL, the bioavailability [13] was 11% and the LBF [14] was 20.9%. For the same molecule, the Cmax [15] was 1860 ng/mL, the bioavailability [16] was 9% and the Cmax [17] was 38 ng/mL. For the same molecule, the half-life [18] was 1.13 h, the IC50 [1] was 0.0022 µM and the fraction unbound [19] was 0.585. The IC50 [20] was 0.00069 µM, the AUC(0-t) [3] was 903 ng·h/mL and the Cmax [21] was 67 ng/mL. It also gave a Vd [22] of 0.33 L/kg, a Cmax [23] of 278 ng/mL and a half-life [4] of 4.21 h. For the same molecule, the Cmax [5] was 78 ng/mL, the solubility [24] was 223 µM (≈ 86 µg/mL) and the Vd [25] was 0.68 L/kg. The Papp A→B [26] was 1.43 ×10⁻⁶ cm/s, the LBF [27] was 24.9% and the Papp B→A [28] was 0.093 ×10⁻⁶ cm/s. The fraction unbound [29] was 0.896, the LBF [30] was 22.1% and the AUC(0-t) [31] was 3820 ng·h/mL. It also gave an IC50 ([2]; Mus musculus, B16-F10) of 0.044 µM, a Vd [32] of 0.31 L/kg and an AUC(0-t) [33] of 173 ng·h/mL. It also gave a fraction unbound [34] of 0.978, a bioavailability [35] of 1.4% and a bioavailability [36] of 6%.
